From patent US10239890B2, “Broad spectrum beta-lactamase inhibitors” (Gladius Pharmaceuticals Corporation, priority 2007, dated 2019)

Key:
[1] = target: T1, beta-lactamase from Enterobacter cloacae (Enterobacter cloacae, UniProt P05364); assay: Assay (I) for beta-lactamase activity (Cefesone hydrolysis, absorbance at 486 nm), product inhibition; format: biochemical; conditions: Cefesone substrate
T1 construct: purchased Sigma-Aldrich, St. Louis, Mo
Procedure: A chromogenic cephalosporin, Cefesone, is synthesized and isolated as described by Sutton et al. and used to monitor p-lactamase activity. A typical assay monitors the hydrolysis of Cefesone via the formation of a species which absorbs at 486 nm (molar absorptivity constant 16,000). Absorption is monitored as a function of time in 0.1 M, pH 7.0 sodium phosphate, 0.2 mM Cefesone and 4 volume percent DMSO cosolvent at 30° C. using a Beckman DU-40 spectrophotometer having a circulating water bath attached to the cuvette holder. The assay is initiated by addition and mixing of an appropriate amount of beta-lactamase.
The beta-lactamase assay using enzyme fro Enterobacter cloacae (Sigma-Aldrich, St. Louis, Mo.) was carried out as in Example 1 (assay I) above with compound 2. After the initial rate was determined the reaction was allowed to continue for two hours. Theoretical maximal absorbance at 486 nm is approximately 1.6 while the observed final absorbance was consistently 0.26.
where E is enzyme, S is substrate, P is product, ES is the enzyme-substrate complex, EP is the enzyme product complex, and k1, k−1, k2, and k−2 are rate constants and kcat is the catalytic rate constant. In the case of product inhibition k−2 is large with respect to k2, so as enzyme product accumulates, more enzyme is tied up in the enzyme-product complex and is unavailable for catalysis.

[2] = target: T1, beta-lactamase from Enterobacter cloacae; assay: Time dependent inhibition of beta-lactamase, with dialysis to test for return of activity; format: biochemical; conditions: 10 mL 0.1 units/mL beta-lactamase with and without 500 microM inhibitor, dialysed against 1 L 0.1 M sodium phosphate buffer (pH 7.0) with one exchange

T1 sequence (P05364 21-381): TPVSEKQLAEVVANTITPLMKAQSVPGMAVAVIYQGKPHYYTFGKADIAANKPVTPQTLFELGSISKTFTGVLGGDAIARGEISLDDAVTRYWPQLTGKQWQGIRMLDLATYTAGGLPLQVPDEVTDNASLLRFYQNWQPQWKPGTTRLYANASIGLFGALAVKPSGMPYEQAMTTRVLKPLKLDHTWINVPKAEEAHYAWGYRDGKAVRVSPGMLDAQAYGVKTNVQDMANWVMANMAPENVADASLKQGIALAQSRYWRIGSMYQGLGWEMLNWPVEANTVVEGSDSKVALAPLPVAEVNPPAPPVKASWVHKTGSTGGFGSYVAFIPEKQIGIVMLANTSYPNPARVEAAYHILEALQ

Row | observed final absorbance at 486 nm ([1]; reaction continued for two hours after the initial rate, theoretical maximal absorbance approximately 1.6) | type of inhibition inferred from final absorbance ([1]; reaction continued for two hours) | return of beta-lactamase activity after dialysis [2] | Structure (SMILES)
1 | 0.26 | consistent with product inhibition | no return of activity | O=C(Cc1ccccc1)NC1C(=O)N2C(C(=O)O)=C(/C=C/C3CC3)CSC12 (stereo not shown) [compound 2, 3-vinylcyclopropane-7-(2-phenylacetamido)-3-Cephem-4-carboxylic acid]
2 | – | – | no return of activity | O=C(Cc1ccccc1)NC1C(=O)N2C(C(=O)O)=C(/C=C/c3ccc(CBr)cc3)CSC12 (stereo not shown) [compound 4, 3-(1-bromomethyl-4-vinylbenzene)-7-(2-phenylacetamido)-3-Cephem-4-carboxylic acid]
